# Data as given in US20220160656A1, “INTRANASALLY ADMINISTERED ANTIHISTAMINES AND USES THEREOF” (DBBH, LLC, priority 2019, published 2022).
# Columns and labels:
# in vitro [1] = details: human; for recovery at 120 min: pH 7.4; for Papp at 120 min: apical dosing
# Protocol: (§1) EpiAirway tissues, plated in 24-well plates, and accompanying culture medium and assay buffer solutions, were purchased from MatTek Corporation (Ashland, Mass.). According to the EpiAirway AIR-100 Use Protocol provided by MatTek, the tissues were returned to culture immediately upon receipt. In a tissue culture hood, using sterile technique, 1.0 mL of cold medium (AIR-100-ASY) was dispensed into each well of the 6-well plate (n=3) and one tissue insert was transferred to each of the wells. The apical surface of the tissue was exposed to the air (no medium was added to the insert). The tissues were equilibrated overnight at 37° C. in a 5% CO2 incubator. The culture medium was then replaced with fresh, pre-warmed medium until use.
# (§2) The unidirectional permeation experiment was conducted according to protocol 18APCIP2 and relevant SOPs of Absorption Systems. Prior to the permeability assay, the culture medium in the plate was aspirated; and ˜1 mL of Dulbecco's phosphate-buffered saline (DPBS) was added to the well to remove any remaining residue of culture medium from the underside of the insert. The tissues were transferred to a 24-well plate with DPBS (750 μL) in each well as receiver, and dosing solution (400 μL) was added to each insert. A 100 μL aliquot was immediately removed as the 0-minute donor sample. Receiver samples (200 μL) were collected at 30, 60, and 120 minutes, replaced with an equal volume of fresh pre-warmed blank buffer at 30 and 60 minutes. The donor side was sampled (100 μL) at 0 and 120 minutes. The assay plate was placed in a humidified CO2 incubator at 37° C. during the assay period.
# (§3) After 120 minutes, the tissues were rinsed with DPBS and gently dried with tissue wipes after aspiration of the assay buffer. The insert membranes with tissues attached were carefully removed from the insert apparatus, placed in a tared centrifuge tube, and weighed.
# (§4) The apparent permeability coefficient (Papp) and recovery were calculated as follows:
# Papp=(dCr/dt)×Vr/(A×Cini) (1)
# (§5) Recovery (%)=[((Cr,final×Vr)+(Cd,final×Vd))/(Cini×Vd)]×100 (2)
# (§6) Recovery (%)=[((Cr,final×Vr)+(Cd,final×Vd)+(Tissue Accumulation))/(Cini×Vd)]×100 (3)
# (§7) where, • dCr/dt is the slope of cumulative receiver concentration vs. time in μM s^−1; • Vr is the volume of the receiver compartment; • Vd is the volume of the donor compartment; • A is the diffusional area of the membrane; • Cini is the donor concentration at 0 minutes in μM; • CD,final is the donor concentration at 120 minutes in μM; • Cr,final is the receiver concentration at 120 minutes in μM.
# (§8) With DPBS, pH 7.4 used on both the donor and receiver sides, permeability was initiated with addition of 0.4 mL of dosing solution into the inserts and of 0.75 mL of blank buffer into the wells of the assay plate. The assay was performed for 120 minutes in a humidified incubator at 37° C.
# in vitro [2] = details: pH 7.4
# rhinovirus colds = details: intranasal administration in a phosphate buffer vehicle, patients; cited from earlier work
# EpiAirway tissues = EpiAirway tissues after 120 minutes
# Protocol: as §1, §2, §3, §4
# Papp=(dCr/dt)×Vr/(A×Cini) (1)
# as §5, §6, §7, §8
SMILES,recovery at 120 min (in vitro [1]),"Papp at 120 min (in vitro [1]; pH 7.4, Papp Average ± SD, EpiAirway tissues, DPBS pH 7.4, diphenhydramine 100 μM, atenolol 100 μM, caffeine 50 μM co-dosed)","Papp at 120 min (in vitro [1]; pH 7.4, Papp R1, EpiAirway tissues, DPBS pH 7.4, 120 minutes, 37° C., replicate R1)","Papp at 120 min (in vitro [1]; pH 7.4, Papp R2, EpiAirway tissues, DPBS pH 7.4, replicate R2)","Papp at 120 min (in vitro [1]; pH 7.4, Papp R3, EpiAirway tissues, DPBS pH 7.4, replicate R3)","recovery at 120 min, 100 μM (in vitro [2])",therapeutic effect in reducing signs and symptoms of rhinovirus colds (rhinovirus colds),Tissue Accumulation Average ± SD (EpiAirway tissues),Tissue Accumulation R1 (EpiAirway tissues; replicate R1),Tissue Accumulation R3 (EpiAirway tissues; replicate R3)
CC(C)NCC(O)COc1ccc(CC(N)=O)cc1 (stereo not drawn) [Atenolol],98.5%,,,,,,,,,
Cn1c(=O)c2c(ncn2C)n(C)c1=O [Caffeine],96.9%,29.1 ×10⁻⁶ cm/s,30.9 ×10⁻⁶ cm/s,28.2 ×10⁻⁶ cm/s,28.2 ×10⁻⁶ cm/s,,,,,
CN(C)CCOC(c1ccccc1)c1ccccc1 [Diphenhydramine],103%,,,,,86.3%,no therapeutic effect,0.212 ± 0.0222 nmol/mg,0.188 nmol/mg,0.218 nmol/mg
